In US20080009511A1, “Cancer treatment with compounds inhibiting PKC alpha” (priority 2004, published 2008):

Experiments:
[1] = system: 3Y1 rat fibroblast cells overexpressing EGF receptors (3Y1-EGFR cells); assay: EGF-induced cell transformation (transformed morphology); format: cell-based; conditions: 1 micromole
[2] = system: KB oral cancer cells; assay: Cell viability assay (trypan blue dye exclusion), viable cells counted at day 6; format: cell-based, human; conditions: 5 micromoles
Protocol: (§1) The following cancer cells were maintained in Dulbecco's modified Eagle medium (DMEM) supplemented with 10 percent bovine calf serum. Cells were seeded for 24 hours. Then they were treated with PKC inhibitors or left untreated. The cells were then collected periodically and evaluated using trypan blue dye exclusion to assess viability using the method described by C Y Chen, et al., in J. Biol. Chem. 273:16700-16709. Cultures containing about 4×10^4 cells were treated with 5 micromoles of Gö7874 (except that PC3 prostate cancer cells were treated with 10 micromoles) and the viable cells were counted at day 6. […] Cultures containing about 4×10^4 cells were treated with or without 10 micromoles of Gö6850 and the viable cells were counted at day 6. […] Cultures containing about 4×10^4 cells were treated with or without 10 micromoles of NGIC-I and the viable cells were counted at day 6. […] Cultures containing about 4×10^4 cells were treated with or without 10 micromoles of Ro31-7549 and the viable cells were counted at day 6. […] Cultures containing about 4×10^4 cells were treated with or without 10 micromoles of Ro31-8220 and the viable cells were counted at day 6. […] Cultures containing about 4×10^4 cells were treated with or without 10 micromoles of Ro31-8425 and the viable cells were counted at day 6. […] Cultures containing about 4×10^4 cells were treated with or without 10 micromoles of Ro31-0432 and the viable cells were counted at day 6.

[3] = system: 3Y1 rat fibroblast cells overexpressing the epidermal growth factor receptor (EGFR); assay: Soft agar/cell transformation assay; format: cell-based; conditions: 1 micromole with EGF (100 ng/ml), in contrast to EGF alone
Source text: 1×10^3 3Y1 rat fibroblast cells overexpressing the epidermal growth factor receptor (EGFR) were suspended in top agar (consisting of 20 percent calf serum, 0.38 percent agar and the remainder DMEM) and overlaid onto bottom agar (DMEM, 20 percent calf serum and 0.7 percent agar) as reported by Sementchenko et al., in Onocgen 17:2883-2888.

[4] = system: U-937 lymphoma cells; assay: Cell viability assay (trypan blue dye exclusion), viable cells counted at day 6; format: cell-based, human; conditions: 5 micromoles
Protocol: Cells were seeded for 24 hours. Then they were treated with PKC inhibitors or left untreated. The cells were then collected periodically and evaluated using trypan blue dye exclusion to assess viability using the method described by C Y Chen, et al., in J. Biol. Chem. 273:16700-16709. Cultures containing about 4×10^4 cells were treated with 5 micromoles of Gö7874 (except that PC3 prostate cancer cells were treated with 10 micromoles) and the viable cells were counted at day 6.

[5] = system: PC3 human prostate cancer cells; assay: as above; format: cell-based; conditions: 10 micromoles
Protocol: as §1

[6] = system: Jurkat cells (a human acute T-cell leukemia cell line); assay: as above; format: cell-based; conditions: 5 micromoles
Protocol: as §1

[7] = system: Hela human cervical cancer cells; assay: as above; format: cell-based; conditions: 5 micromoles
Protocol: as §1

[8] = system: A431 human epidermoid carcinoma cells; assay: as above; format: cell-based; conditions: 5 micromoles
Protocol: as §1

[9] = system: H460 human lung cancer cells; assay: as above; format: cell-based; conditions: 5 micromoles
Protocol: as §1

[10] = system: NBT-II human bladder cancer cells; assay: as above; format: cell-based; conditions: 5 micromoles, about 4×10^4 cells seeded, untreated 2.9 ± 0.4
Protocol: as §1

[11] = system: HT29 human colon cancer cells; assay: as above; format: cell-based; conditions: 5 micromoles
Protocol: as §1

[12] = system: HepG2 human liver cancer cells; assay: as above; format: cell-based; conditions: 5 micromoles
Protocol: as §1

[13] = system: U251 human glioma cells; assay: as above; format: cell-based; conditions: 5 micromoles
Protocol: as §1

[14] = system: PANC-1 human pancreatic carcinoma cells; assay: as above; format: cell-based; conditions: 5 micromoles
Protocol: as §1

[15] = system: MDA-MB-468 human breast cancer cells; assay: as above; format: cell-based; conditions: 5 micromoles
Protocol: as §1

[16] = system: AGS human gastric cancer cells; assay: as above; format: cell-based; conditions: 5 micromoles
Protocol: as §1

[17] = about 4×10^4 cells seeded, untreated 3.8 ± 0.4

## COc1ccc2c(c1)c1c3c(c4c5ccccc5n(C)c4c1n2CC(O)CN(C)C)C(=O)NC3=O.Cl (stereo not drawn) [Gö7874, 5,7(6H)-dione,13-[3-(dimethylamino)-2-hydroxypropyl]-12,13-dihydro-3-methoxy-12-methyl-5H-Indolo[2,3-a]pyrrolo[3,4-c]carbazole, monohydrochloride]
[1]; co-treatment with 100 ng/ml EGF
  cell apoptosis during co-treatment: without detected cell apoptosis
[1]; co-treatment with 100 ng/ml EGF for 48 hours
  effect on EGF-induced transformed morphology: partially blocked
[2]
  cells that went to apoptosis after treatment: all
[2]; [17]
  Treated (cell number × 10^5): 0 × 10^5
[3]
  reduction of colony number in soft agar: 82%
[4]
  cells that went to apoptosis after treatment: all
[5]
  cells that went to apoptosis after treatment: all
[5]; about 4×10^4 cells seeded, untreated 7.1 ± 0.3
  Treated (cell number × 10^5): 0 × 10^5
[6]
  originally seeded cells survived (fraction, words): less than one third
[6]; about 4×10^4 cells seeded, untreated 8.8 ± 0.4
  Treated (cell number × 10^5): 0.1 × 10^5
[7]
  cells that went to apoptosis after treatment: all
[7]; about 4×10^4 cells seeded, untreated 3.4 ± 0.4
  Treated (cell number × 10^5): 0 × 10^5
[8]
  cells that went to apoptosis after treatment: all
[8]; about 4×10^4 cells seeded, untreated 5.4 ± 0.4
  Treated (cell number × 10^5): 0 × 10^5
[9]
  cells that went to apoptosis after treatment: all
[9]; about 4×10^4 cells seeded, untreated 2.4 ± 0.2
  Treated (cell number × 10^5): 0 × 10^5
[10]
  Treated (cell number × 10^5): 0 × 10^5
[11]
  cells that went to apoptosis after treatment: all
[11]; [17]
  Treated (cell number × 10^5): 0 × 10^5
[12]
  cells that went to apoptosis after treatment: all
[12]; about 4×10^4 cells seeded, untreated 4.2 ± 0.4
  Treated (cell number × 10^5): 0 × 10^5
[13]
  cells that went to apoptosis after treatment: all
[13]; about 4×10^4 cells seeded, untreated 9.6 ± 0.5
  Treated (cell number × 10^5): 0 × 10^5
[14]
  cells that went to apoptosis after treatment: all
[14]; about 4×10^4 cells seeded, untreated 2.1 ± 0.3
  Treated (cell number × 10^5): 0 × 10^5
[15]
  cells that went to apoptosis after treatment: all
[15]; about 4×10^4 cells seeded, untreated 6.1 ± 0.4
  Treated (cell number × 10^5): 0 × 10^5
[16]
  cells that went to apoptosis after treatment: all
  inhibition of cell proliferation: More than 60%
[16]; about 4×10^4 cells seeded, untreated 2.4 ± 0.3
  Treated (cell number × 10^5): 0.8 × 10^5
